ChEMBL document CHEMBL4229404, “Druggability Assessment of Targets Used in Kinetic Target-Guided Synthesis” (J Med Chem, 2018)

What was measured:
Acetylcholinesterase = Acetylcholinesterase (Electrophorus electricus, UniProt O42275)
Description: Binding affinity to electric eel AChE after 24 hrs by LC/MS-SIM analysis

[1] = molecular target: T1, Bifunctional ligase/repressor BirA (Staphylococcus aureus, UniProt A0A0E7NXW5); assay: Inhibition of Staphylococcus aureus biotin protein ligase by LC/MS-SIM analysis
T1 sequence (A0A0E7NXW5 whole entry): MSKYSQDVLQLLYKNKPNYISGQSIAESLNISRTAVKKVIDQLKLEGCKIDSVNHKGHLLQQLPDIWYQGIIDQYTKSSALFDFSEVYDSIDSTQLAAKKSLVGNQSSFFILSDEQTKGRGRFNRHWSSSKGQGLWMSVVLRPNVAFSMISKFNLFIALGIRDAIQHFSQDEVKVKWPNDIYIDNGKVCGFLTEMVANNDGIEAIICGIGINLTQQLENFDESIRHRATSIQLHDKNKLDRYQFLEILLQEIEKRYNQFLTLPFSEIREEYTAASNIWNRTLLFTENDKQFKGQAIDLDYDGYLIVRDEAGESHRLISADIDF

[2] = molecular target: HTH-type transcriptional regulator EthR (Mycobacterium tuberculosis, UniProt P9WMC1); assay: Inhibition of Mycobacterium tuberculosis EthR
Carbonic anhydrase 2 = Carbonic anhydrase 2 (Homo sapiens, UniProt P00918); assay: Inhibition of CA2 (unknown origin)
Chitinase B = molecular target: T2, Chitinase B (Serratia marcescens, UniProt P11797); assay: Inhibition of Serratia marcescens 6x-His-tagged ChiB after 20 hrs by LCMS-SIR analysis
T2 sequence (P11797 whole entry): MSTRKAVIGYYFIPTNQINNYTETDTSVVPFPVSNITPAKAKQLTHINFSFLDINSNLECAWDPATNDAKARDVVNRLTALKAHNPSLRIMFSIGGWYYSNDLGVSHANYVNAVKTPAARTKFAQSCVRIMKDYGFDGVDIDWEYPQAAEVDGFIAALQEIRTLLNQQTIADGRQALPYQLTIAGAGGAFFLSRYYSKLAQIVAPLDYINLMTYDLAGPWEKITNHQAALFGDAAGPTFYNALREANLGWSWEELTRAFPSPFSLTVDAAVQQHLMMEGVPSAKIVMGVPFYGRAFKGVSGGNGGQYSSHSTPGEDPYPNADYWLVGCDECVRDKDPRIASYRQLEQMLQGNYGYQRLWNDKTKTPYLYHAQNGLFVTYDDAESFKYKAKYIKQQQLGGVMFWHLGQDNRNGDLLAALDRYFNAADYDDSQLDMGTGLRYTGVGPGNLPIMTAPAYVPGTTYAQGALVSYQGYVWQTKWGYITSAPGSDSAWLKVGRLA

Homo sapiens = organism: Homo sapiens; assay: Inhibition of human recombinant 14-3-3 protein at 300 uM after 8 hrs

Sequence of HTH-type transcriptional regulator EthR (P9WMC1 whole entry): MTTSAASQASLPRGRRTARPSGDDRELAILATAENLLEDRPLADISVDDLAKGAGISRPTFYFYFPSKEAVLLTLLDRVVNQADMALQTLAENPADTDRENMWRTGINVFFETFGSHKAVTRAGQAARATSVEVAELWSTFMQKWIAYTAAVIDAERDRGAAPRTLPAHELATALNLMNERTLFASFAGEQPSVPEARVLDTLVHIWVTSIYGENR
Sequence of Acetylcholinesterase (O42275 whole entry): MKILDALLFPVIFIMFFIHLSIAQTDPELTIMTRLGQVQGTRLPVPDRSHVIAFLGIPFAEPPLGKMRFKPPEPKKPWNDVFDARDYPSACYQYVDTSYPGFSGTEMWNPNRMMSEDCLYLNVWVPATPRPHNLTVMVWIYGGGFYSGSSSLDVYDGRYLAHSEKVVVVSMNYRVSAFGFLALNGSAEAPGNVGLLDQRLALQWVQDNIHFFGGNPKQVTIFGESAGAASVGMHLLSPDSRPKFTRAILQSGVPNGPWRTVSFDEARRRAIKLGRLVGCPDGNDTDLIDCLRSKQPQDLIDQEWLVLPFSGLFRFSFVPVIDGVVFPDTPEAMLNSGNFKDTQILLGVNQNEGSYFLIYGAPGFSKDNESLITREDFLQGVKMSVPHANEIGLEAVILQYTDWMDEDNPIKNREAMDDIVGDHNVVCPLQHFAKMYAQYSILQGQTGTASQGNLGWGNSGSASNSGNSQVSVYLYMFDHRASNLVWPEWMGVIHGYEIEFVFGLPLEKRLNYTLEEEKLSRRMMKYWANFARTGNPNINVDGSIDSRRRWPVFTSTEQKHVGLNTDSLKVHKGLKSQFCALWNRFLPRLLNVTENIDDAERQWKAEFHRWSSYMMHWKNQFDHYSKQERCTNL

Q: For `CC[N+](C)(CC)CCC[n+]1c(-c2ccccc2)c2cc(N)ccc2c2ccccc21`, which Kd (Acetylcholinesterase) is on record?
A: 1100 nM

Q: With `Nc1ncnc2c1ncn2CCCCn1cc(CCCCC[C@@H]2SC[C@@H]3NC(=O)N[C@@H]32)nn1` as the compound, how does the Ki [1] read?
A: 660 nM

Q: Which IC50 [2] does the source give for `O=C(Cn1cc(CNS(=O)(=O)c2ccc(I)cc2)nn1)N1CCC(c2nc(-c3cccs3)no2)CC1` here?
A: 580 nM

Q: For `CCOC(=O)c1cccc(CSCc2ccc(S(N)(=O)=O)cc2)c1`, which IC50 (Carbonic anhydrase 2) is on record?
A: 59 nM

Q: For `[H]/N=C(/NCCC[C@H](NC(=O)Cn1nncc1CO/N=C/c1ccnc2ccccc12)C(=O)N(Cc1ccccc1)Cc1ccccc1)NC(=O)NC`, which IC50 (Chitinase B) is on record?
A: 22 nM

Q: For `C=CC(C)(C)OC[C@H]1O[C@H](O[C@@H]2C3=C([C@H](C)CNC(=O)[C@H]4CO4)C[C@H](O)[C@]3(C)/C=C3/[C@@H](COC)CC[C@@]3(C)[C@@H](C)[C@H]2O)[C@H](O)[C@@H](O)[C@@H]1O`, which inhibition (Homo sapiens) is on record?
A: 37%
